Experimental data as given in ChEMBL document CHEMBL3397027, “Design, synthesis and evaluation of chromone-2-carboxamido-alkylbenzylamines as multifunctional agents for the treatment of Alzheimer's disease” (Bioorg Med Chem, 2015).

How the values were obtained:
Acetylcholinesterase [1] = molecular target: Acetylcholinesterase (Electrophorus electricus, UniProt O42275); test: Inhibition of electric eel AChE using acetylthiocholine iodide as substrate after 15 mins by Ellman method
[2] = molecular target: Amyloid-beta precursor protein (Homo sapiens) (UniProt P05067); test: Inhibition of self-mediated aggregation of amyloid beta (1-42) (unknown origin) at 25 uM after 24 hrs by thioflavin T fluorescence-based fluorimetric method
Acetylcholinesterase [3] = molecular target: T1, Acetylcholinesterase (Rattus norvegicus, UniProt P37136); test: Inhibition of AChE from rat cortex homogenate using acetylthiocholine iodide as substrate after 15 mins by Ellman method
T1 sequence (P37136 whole entry): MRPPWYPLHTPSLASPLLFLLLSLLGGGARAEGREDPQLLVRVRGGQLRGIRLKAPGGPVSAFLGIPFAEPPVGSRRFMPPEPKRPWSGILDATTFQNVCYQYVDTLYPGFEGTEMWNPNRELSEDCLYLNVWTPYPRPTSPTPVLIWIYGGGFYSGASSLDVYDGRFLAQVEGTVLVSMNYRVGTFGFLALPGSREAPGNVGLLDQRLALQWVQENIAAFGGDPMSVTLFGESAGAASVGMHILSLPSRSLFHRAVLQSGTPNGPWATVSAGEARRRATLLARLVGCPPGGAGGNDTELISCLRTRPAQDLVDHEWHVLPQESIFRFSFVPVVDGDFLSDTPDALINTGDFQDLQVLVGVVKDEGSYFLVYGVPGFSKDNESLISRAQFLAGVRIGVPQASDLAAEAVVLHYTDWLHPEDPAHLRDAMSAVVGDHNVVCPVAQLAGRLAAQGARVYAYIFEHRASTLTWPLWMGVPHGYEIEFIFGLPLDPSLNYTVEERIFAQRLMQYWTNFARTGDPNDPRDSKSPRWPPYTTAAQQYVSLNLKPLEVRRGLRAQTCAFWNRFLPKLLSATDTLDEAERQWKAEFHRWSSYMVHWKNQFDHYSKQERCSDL

[4] = molecular target: Amyloid-beta precursor protein (Homo sapiens) (UniProt P05067); test: Inhibition of Cu2+-mediated aggregation of amyloid beta (1-42) (unknown origin) at 25 uM after 24 hrs by thioflavin T fluorescence-based fluorimetric method
[5] = Antioxidant activity assessed as AAPH scavenging activity measured as trolox equivalent at 5 uM after 15 mins by ORAC-FL method relative to control; type: physicochemical; settings: 0.25 h
[6] = Inhibition of rat serum BuChE using butyrylthiocholine iodide as substrate after 15 mins by Ellman method; type: cell-free
Rattus norvegicus = species: Rattus norvegicus; test: Selectivity index, ratio of IC50 for rat serum BuChE to IC50 for AChE from rat cortex homogenate; type: cell-free

Amyloid-beta precursor protein (Homo sapiens), sequence (P05067 whole entry): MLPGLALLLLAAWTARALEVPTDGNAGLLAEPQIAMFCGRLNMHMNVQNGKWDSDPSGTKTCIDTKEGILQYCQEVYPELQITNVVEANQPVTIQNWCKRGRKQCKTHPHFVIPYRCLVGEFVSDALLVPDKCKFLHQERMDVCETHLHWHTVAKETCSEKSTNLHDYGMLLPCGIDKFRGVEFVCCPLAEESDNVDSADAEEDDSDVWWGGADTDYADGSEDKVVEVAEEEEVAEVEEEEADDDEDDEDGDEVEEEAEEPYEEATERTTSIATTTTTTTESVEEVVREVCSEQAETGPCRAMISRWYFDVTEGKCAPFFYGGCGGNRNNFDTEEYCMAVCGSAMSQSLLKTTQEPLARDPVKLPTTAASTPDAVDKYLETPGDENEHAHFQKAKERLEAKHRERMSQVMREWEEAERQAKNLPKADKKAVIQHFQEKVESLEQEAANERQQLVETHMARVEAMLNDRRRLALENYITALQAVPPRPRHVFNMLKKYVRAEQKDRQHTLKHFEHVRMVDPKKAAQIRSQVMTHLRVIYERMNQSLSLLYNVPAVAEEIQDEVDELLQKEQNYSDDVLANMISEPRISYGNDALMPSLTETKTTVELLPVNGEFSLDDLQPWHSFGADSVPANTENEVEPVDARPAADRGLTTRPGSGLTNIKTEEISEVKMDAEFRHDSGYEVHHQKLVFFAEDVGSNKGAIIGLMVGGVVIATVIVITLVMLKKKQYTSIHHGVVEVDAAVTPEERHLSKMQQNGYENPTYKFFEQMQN
Acetylcholinesterase (Electrophorus electricus, UniProt O42275), sequence (O42275 whole entry): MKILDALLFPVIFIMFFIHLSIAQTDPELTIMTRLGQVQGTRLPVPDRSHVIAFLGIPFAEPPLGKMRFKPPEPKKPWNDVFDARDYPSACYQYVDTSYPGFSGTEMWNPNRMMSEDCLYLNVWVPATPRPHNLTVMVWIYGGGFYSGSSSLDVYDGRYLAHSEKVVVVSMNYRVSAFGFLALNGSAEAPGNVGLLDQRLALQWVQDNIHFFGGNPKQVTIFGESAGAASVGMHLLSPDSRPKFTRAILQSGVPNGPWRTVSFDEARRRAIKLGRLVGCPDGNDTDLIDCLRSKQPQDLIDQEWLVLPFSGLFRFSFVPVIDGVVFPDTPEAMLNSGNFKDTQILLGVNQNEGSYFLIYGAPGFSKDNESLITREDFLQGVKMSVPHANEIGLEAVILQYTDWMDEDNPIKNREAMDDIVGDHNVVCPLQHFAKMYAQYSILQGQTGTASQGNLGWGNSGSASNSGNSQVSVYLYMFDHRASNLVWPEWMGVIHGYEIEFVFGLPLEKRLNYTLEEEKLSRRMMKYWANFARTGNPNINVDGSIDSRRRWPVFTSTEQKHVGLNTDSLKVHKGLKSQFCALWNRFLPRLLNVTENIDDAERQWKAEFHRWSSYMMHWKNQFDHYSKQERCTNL

SMILES	IC50 (Acetylcholinesterase [1]; read-out: IC50)	inhibition [2]	IC50 (Acetylcholinesterase [3])	inhibition [4]	fold change (FC) [5]	IC50 [6]	Ratio IC50 (Rattus norvegicus)	IC50 (Acetylcholinesterase [1])
COc1cc(O)c2c(=O)cc(C(=O)NCCCCN3CCOc4ccccc4C3)oc2c1	> 200 µM	40.9%	> 200000 nM	35%	0.68	> 200 µM		
CCN(CCCCCCNC(=O)c1cc(=O)c2c(O)cc(O)cc2o1)Cc1ccccc1OC	1.4 µM	39.4%	870 nM	28.7%	2.25	> 200 µM	> 200	
COc1ccccc1CN(C)CCCNC(=O)c1cc(=O)c2c(O)cccc2o1		50.6%	9510 nM	23.8%	1.64	102 µM	10.7	Not Active
CCN(CCCCNC(=O)c1cc(=O)c2c(O)cc(N(C)C)cc2o1)Cc1ccccc1OC	4.02 µM	41.1%	910 nM	36.9%	1.05	109 µM	120	
O=C(O)c1cc(=O)c2c(O)cc(O)cc2o1	> 200 µM		> 200000 nM		2.01	> 200 µM		
COc1cc(O)c2c(=O)cc(C(=O)O)oc2c1	> 200 µM		> 200000 nM		0.87	> 200 µM		
CCOC(=O)c1cc(=O)c2c(O)cccc2o1	> 200 µM		> 200000 nM		0.78	> 200 µM		
COc1cc2c(cc1OC)C(=O)C(CC1CCN(Cc3ccccc3)CC1)C2 (centres undefined) [DONEPEZIL]						20.7 µM		
CCN(CCCCCCNC(=O)c1cc(=O)c2c(O)cccc2o1)Cc1ccccc1OC	0.53 µM	63%	190 nM	55.6%	0.87	23.2 µM	122	
C#CCN(CCCCNC(=O)c1cc(=O)c2c(O)cc(OC)cc2o1)Cc1ccccc1OC	73 µM	22.4%	13600 nM	21.5%	0.56	57.3 µM	4.2	
COc1cc(O)c2c(=O)cc(C(=O)NCCCN(C)Cc3ccccc3OC)oc2c1	9.8 µM	43.6%	4010 nM	28.7%	0.93	171 µM	42.5	
CCN(CCCCCCNC(=O)c1cc(=O)c2c(O)cc(OC)cc2o1)Cc1ccccc1OC	0.56 µM	58.2%	230 nM	52%	0.76	49.9 µM	217	
CCN(CCCCNC(=O)c1cc(=O)c2c(O)cc(OC)cc2o1)Cc1ccccc1OC	1.16 µM	51%	330 nM	38.9%	0.62	86.5 µM	262	
COc1cc(O)c2c(=O)cc(C(=O)NCCCCN(C)Cc3ccccc3OC)oc2c1	3.5 µM	47.5%	2900 nM	36.3%	0.55	82.1 µM	28.3	
COc1cc(O)c2c(=O)cc(C(=O)NCCCN(C)Cc3ccccc3)oc2c1	3.12 µM	23%	15300 nM	24.3%	0.46	> 200 µM	> 13.1	
CN(C)c1cc(O)c2c(=O)cc(C(=O)O)oc2c1	> 200 µM		> 200000 nM		0.95	> 200 µM		
CCN(CCCNC(=O)c1cc(=O)c2c(O)cc(O)cc2o1)Cc1ccccc1OC	49.7 µM	35.1%	6850 nM	18.1%	2.1	> 200 µM	> 29.2	
CCN(CCCCNC(=O)c1cc(=O)c2c(O)cc(OC)cc2o1)Cc1ccc(N(C)C)cc1	9.05 µM	37.1%	7450 nM	28.8%	2.2	57.5 µM	7.7	
CCN(CCCNC(=O)c1cc(=O)c2c(O)cc(OC)cc2o1)Cc1ccccc1OC	1.85 µM	47.9%	880 nM	27.2%	0.54	197 µM	224	
CCN(CCCNC(=O)c1cc(=O)c2c(O)cc(OC)cc2o1)Cc1ccccc1	11.2 µM	21.1%	7940 nM	31.5%	0.66	83.5 µM	10.5	
CCN(CCCCNC(=O)c1cc(=O)c2c(O)cc(OC)cc2o1)Cc1ccccc1	1.45 µM	39%	1810 nM	34.1%	0.65	128 µM	71	
CCN(CCCCNC(=O)c1cc(=O)c2c(O)cc(N(C)C)cc2o1)Cc1ccccc1N(C)C	3.53 µM	40.8%	1390 nM	30.7%	1.34	149 µM	107	
COc1cc(O)c2c(=O)cc(C(=O)NCCCCCCN(C)Cc3ccccc3)oc2c1	0.25 µM	33.5%	3030 nM	37.1%	1	50.1 µM	16.5	
CCN(CCCCCCNC(=O)c1cc(=O)c2c(O)cc(OC)cc2o1)Cc1ccccc1	1.38 µM	28.6%	1700 nM	42.6%	0.65	53.5 µM	31.5	
COc1cc(O)c2c(=O)cc(C(=O)NCCCCCCN(C)Cc3ccccc3OC)oc2c1	0.58 µM	43.9%	1590 nM	48.1%	1.3	43.3 µM	27.2	
CCN(CCCNC(=O)c1cc(=O)c2c(O)cccc2o1)Cc1ccccc1OC	13.9 µM	48.7%	410 nM	35.2%	1.13	93.4 µM	228	
COc1cc(/C=C/C(=O)CC(=O)/C=C/c2ccc(O)c(OC)c2)ccc1O				58%				
